Measured values as given in patent US7544666B2, “NAP derivatives” (Industrial Technology Research Institute, priority 2005, dated 2009).

Experiments:
[1] = Stability in Hanks' balanced salt solution (HBSS); type: physicochemical; details: 37° C., relative to initial conc. in HBSS = 100.00
Method: (§1) The stability of the NAP derivatives prepared by EXAMPLE 1 was measured with the system of human colon cancer cell, Caco-2 cell. Caco-2 cells (1×10^5 cells) were first seeded into a polycarbonate film on the upper layer of a 12-well Transwell and incubated for 18 to 26 days at 37° C. The TEER of the Caco-2 cell monolayer was measured over 350 Ω×cm^2. The stability of the NAP derivatives in the Hanks' balanced salt solutions (HBSS) was measured by the concentration changes of NAP and the NAP derivatives incubated in the HBSS at 37° C. for 4 hours. The stability of the NAP derivatives in the Caco-2 cell system was measured by the procedure described below. NAP and the NAP derivatives in the HBSS were added into the upper layer of the Caco-2 cell-seeded Transwell. After 4-hour incubation, the concentration of NAP and the NAP derivatives in the upper and lower layers was measured and analyzed in comparison with the initial concentration (500 μM) by reverse HPLC at 210 nm.

Caco-2 cell monolayer = test: Permeation to Caco-2 cell monolayer; type: in vitro ADME, human; design: unit not given here; details: 4-hour incubation, initial concentration 500 μM in upper layer
Method: The permeation of NAP and the NAP derivatives was examined using the Caco-2 cell system. Caco-2 cells (1×10^5 cells) were seeded into the polycarbonate film on the upper layer of a 12-well Transwell and incubated at 37° C. for 18 to 26 days. The TEER of the Caco cell monolayer was measured over 350 Ω×cm^2. NAP and the NAP derivatives in the HBSS were added into the upper layer of the Caco-2 cell-seeded Transwell. After 4-hour incubation, the concentration of NAP and the NAP derivatives in the upper and lower layers was measured and analyzed in comparison with the initial concentration (500 μM) by reverse phase HPLC at 210 nm.

Caco-2 cell = test: Stability in the Caco-2 cell system; type: in vitro ADME, human; details: 4-hour incubation in Caco-2 Transwell; relative to initial conc. = 100.00 (500 μM)
Method: as §1

Compound	Conc. after 4-hour in HBSS [1]	Conc. at the lover layer (Caco-2 cell monolayer)	Conc. after 4-hour in Caco-2 cells (Caco-2 cell)
CC[C@H](C)[C@H](NC(=O)[C@H](CO)NC(=O)[C@@H](NC(=O)[C@@H]1CCCN1C(=O)[C@H](C)NC(=O)[C@H](CC(N)=O)NC(=O)OCC(C)C)C(C)C)C(=O)N1CCC[C@H]1C(=O)N[C@@H](CCC(N)=O)C(N)=O [BMEC-NAP0501, iBu-OCO-NAPVSIPQ-NH2]	100.17	0.76	87.00
CCCCOC(=O)N[C@@H](CC(N)=O)C(=O)N[C@@H](C)C(=O)N1CCC[C@H]1C(=O)N[C@H](C(=O)N[C@@H](CO)C(=O)N[C@H](C(=O)N1CCC[C@H]1C(=O)N[C@@H](CCC(N)=O)C(N)=O)[C@@H](C)CC)C(C)C [BMEC-NAP0503, nBu-OCO-NAPVSIPQ-NH2]	99.77	0.60	85.89
CCCCCCOC(=O)N[C@@H](CC(N)=O)C(=O)N[C@@H](C)C(=O)N1CCC[C@H]1C(=O)N[C@H](C(=O)N[C@@H](CO)C(=O)N[C@H](C(=O)N1CCC[C@H]1C(=O)N[C@@H](CCC(N)=O)C(N)=O)[C@@H](C)CC)C(C)C [BMEC-NAP0504, nHex-OCO-NAPVSIPQ-NH2]	100.22	0.49	82.71
CCCCCCCCOC(=O)N[C@@H](CC(N)=O)C(=O)N[C@@H](C)C(=O)N1CCC[C@H]1C(=O)N[C@H](C(=O)N[C@@H](CO)C(=O)N[C@H](C(=O)N1CCC[C@H]1C(=O)N[C@@H](CCC(N)=O)C(N)=O)[C@@H](C)CC)C(C)C [BMEC-NAP0505, nOct-OCO-NAPVSIPQ-NH2]	93.41	0.65	76.83
CC[C@H](C)[C@H](NC(=O)[C@H](CO)NC(=O)[C@@H](NC(=O)[C@@H]1CCCN1C(=O)[C@H](C)NC(=O)[C@H](CC(N)=O)NC(=O)c1cccc2ccccc12)C(C)C)C(=O)N1CCC[C@H]1C(=O)N[C@@H](CCC(N)=O)C(=O)O [BMEC-NAP0702, α-Naphthoyl-NAPVSIPQ-OH]	96.55	0.27	61.61
CC[C@H](C)[C@H](NC(=O)[C@H](CO)NC(=O)[C@@H](NC(=O)[C@@H]1CCCN1C(=O)[C@H](C)NC(=O)[C@H](CC(N)=O)NC(=O)c1cccs1)C(C)C)C(=O)N1CCC[C@H]1C(=O)N[C@@H](CCC(N)=O)C(=O)O [BMEC-NAP0704, 2-Thiophenecarbonyl-NAPVSIPQ-OH]	99.88	0.24	73.69
CC[C@H](C)[C@H](NC(=O)[C@H](CO)NC(=O)[C@@H](NC(=O)[C@@H]1CCCN1C(=O)[C@H](C)NC(=O)[C@H](CC(N)=O)NC(=O)OCc1ccccc1)C(C)C)C(=O)N1CCC[C@H]1C(=O)N[C@@H](CCC(N)=O)C(=O)O [BMEC-NAP0705, Cbz-NAPVSIPQ-OH]	100.00	0.21	72.93
CC[C@H](C)[C@H](NC(=O)[C@H](CO)NC(=O)[C@@H](NC(=O)[C@@H]1CCCN1C(=O)[C@H](C)NC(=O)[C@H](CC(N)=O)NC(=O)c1ccccc1)C(C)C)C(=O)N1CCC[C@H]1C(=O)N[C@@H](CCC(N)=O)C(N)=O [BMEC-NAP0801, Benzoyl-NAPVSIPQ-NH2]	99.88	0.33	92.58
CC[C@H](C)[C@H](NC(=O)[C@H](CO)NC(=O)[C@@H](NC(=O)[C@@H]1CCCN1C(=O)[C@H](C)NC(=O)[C@H](CC(N)=O)NC(=O)c1cccc2ccccc12)C(C)C)C(=O)N1CCC[C@H]1C(=O)N[C@@H](CCC(N)=O)C(N)=O [BMEC-NAP0802, α-Naphthoyl-NAPVSIPQ-NH2]	100.00	0.34	88.68
